Reference: ChEMBL document CHEMBL1275550, “In vitro activity of doripenem, a carbapenem for the treatment of challenging infections caused by gram-negative bacteria, against recent clinical isolates from the United States” (2008)
≈ marks a conversion by molar mass, not a printed value.

Experiments:
Type in all cases: functional
Escherichia coli [1] = assay: Antimicrobial activity against ESBL producing Escherichia coli assessed as resistant isolate by broth microdilution method
Citrobacter [2] = assay: Antimicrobial activity against Citrobacter with nonderepressed AmpC beta-lactamsae assessed as resistant isolate by broth microdilution method
Klebsiella pneumoniae [3] = assay: Antimicrobial activity against ESBL producing Klebsiella pneumoniae assessed as resistant isolate by broth microdilution method
Enterobacter cloacae [4] = assay: Antimicrobial activity against Enterobacter cloacae with derepressed AmpC beta-lactamsae assessed as resistant isolate by broth microdilution method
Pseudomonas aeruginosa [5] = assay: Antimicrobial activity against imipenem susceptible Pseudomonas aeruginosa assessed as resistant isolate by broth microdilution method
Proteus mirabilis [6] = assay: Antimicrobial activity against Non-ESBL Proteus mirabilis assessed as resistant isolate by broth microdilution method
Klebsiella pneumoniae [7] = assay: Antimicrobial activity against Non-ESBL Klebsiella pneumoniae assessed as resistant isolate by broth microdilution method
Streptococcus pneumoniae [8] = assay: Antimicrobial activity against penicillin-intermediate Streptococcus pneumoniae by broth microdilution method
Staphylococcus [9] = assay: Antimicrobial activity against methicillin-resistant coagulase-negative Staphylococcus by broth microdilution method
Streptococcus pneumoniae [10] = assay: Antimicrobial activity against […] assessed as susceptible isolate by broth microdilution method
Acinetobacter [11] = assay: Antimicrobial activity against Acinetobacter assessed as intermediate isolate by broth microdilution method
Citrobacter [12] = assay: Antimicrobial activity against Citrobacter assessed as intermediate isolate by broth microdilution method
Staphylococcus [13] = assay: Antimicrobial activity against methicillin-susceptible coagulase-negative Staphylococcus assessed as susceptible isolate by broth microdilution method
Klebsiella pneumoniae [14] = assay: Antimicrobial activity against Klebsiella pneumoniae assessed as intermediate isolate by broth microdilution method
Acinetobacter [15] = assay: Antimicrobial activity against Acinetobacter assessed as resistant isolate by broth microdilution method
Escherichia coli [16] = assay: Antimicrobial activity against Escherichia coli assessed as intermediate isolate by broth microdilution method
Streptococcus pneumoniae [17] = assay: Antimicrobial activity against penicillin-intermediate Streptococcus pneumoniae assessed as intermediate isolate by broth microdilution method
Serratia marcescens [18] = assay: Antimicrobial activity against Ceftazidime susceptible Serratia marcescens assessed as intermediate isolate by broth microdilution method in presence of tazobactam
Enterobacteriaceae [19] = assay: Antimicrobial activity against ceftazidime non-susceptible Enterobacteriaceae assessed as susceptible isolate by broth microdilution method in presence of Tazobactam
Enterobacter cloacae [20] = assay: Antimicrobial activity against Enterobacter cloacae with nonderepressed AmpC beta-lactamsae assessed as intermediate isolate by broth microdilution method in presence of Tazobactam
Proteus mirabilis [21] = assay: Antimicrobial activity against ESBL producing Proteus mirabilis by broth microdilution method in presence of Tazobactam
Enterobacter cloacae [22] = assay: Antimicrobial activity against Enterobacter cloacae with derepressed AmpC beta-lactamsae assessed as resistant isolate by broth microdilution method in presence of Tazobactam
Pseudomonas aeruginosa [23] = assay: Antimicrobial activity against ceftazidime non-susceptible Pseudomonas aeruginosa assessed as susceptible isolate by broth microdilution method in presence of Tazobactam
Acinetobacter [24] = assay: Antimicrobial activity against imipenem non-susceptible Acinetobacter assessed as intermediate isolate by broth microdilution method in presence of Tazobactam
Citrobacter [25] = assay: Antimicrobial activity against Citrobacter with derepressed AmpC beta-lactamsae assessed as resistant isolate by broth microdilution method in presence of Tazobactam
Enterobacter cloacae [26] = assay: Antimicrobial activity against Enterobacter cloacae with derepressed AmpC beta-lactamsae by broth microdilution method in presence of Tazobactam
Citrobacter [27] = assay: Antimicrobial activity against Citrobacter with derepressed AmpC beta-lactamsae by broth microdilution method in presence of Tazobactam
Proteus mirabilis [28] = assay: Antimicrobial activity against Non-ESBL Proteus mirabilis by broth microdilution method in presence of Tazobactam
Pseudomonas aeruginosa [29] = assay: Antimicrobial activity against Pseudomonas aeruginosa isolated from non-ICU patient assessed as resistant isolate by broth microdilution method in presence of Tazobactam
Escherichia coli [30] = assay: Antimicrobial activity against ESBL producing Escherichia coli assessed as susceptible isolate by broth microdilution method in presence of Tazobactam
Serratia marcescens [31] = assay: Antimicrobial activity against ceftazidime non-susceptible Serratia marcescens assessed as resistant isolate by broth microdilution method in presence of Tazobactam
Enterobacteriaceae [32] = assay: Antimicrobial activity against ceftazidime-susceptible Enterobacteriaceae assessed as intermediate isolate by broth microdilution method in presence of Tazobactam
Acinetobacter [33] = assay: Antimicrobial activity against imipenem non-susceptible Acinetobacter assessed as susceptible isolate by broth microdilution method in presence of Tazobactam
Enterobacter cloacae [34] = assay: Antimicrobial activity against Enterobacter cloacae with nonderepressed AmpC beta-lactamsae by broth microdilution method in presence of Tazobactam
Pseudomonas aeruginosa [35] = assay: Antimicrobial activity against imipenem susceptible Pseudomonas aeruginosa assessed as intermediate isolate by broth microdilution method in presence of Tazobactam
Escherichia coli [36] = assay: Antimicrobial activity against ESBL producing Escherichia coli by broth microdilution method in presence of Tazobactam
Escherichia coli [37] = assay: Antimicrobial activity against ESBL producing Escherichia coli assessed as intermediate isolate by broth microdilution method in presence of Tazobactam
Acinetobacter [38] = assay: Antimicrobial activity against imipenem non-susceptible Acinetobacter assessed as resistant isolate by broth microdilution method in presence of Tazobactam
Pseudomonas aeruginosa [39] = assay: Antimicrobial activity against imipenem susceptible Pseudomonas aeruginosa by broth microdilution method in presence of Tazobactam
Proteus mirabilis [40] = assay: Antimicrobial activity against Non-ESBL Proteus mirabilis assessed as intermediate isolate by broth microdilution method in presence of Tazobactam
Enterobacter cloacae [41] = assay: Antimicrobial activity against Enterobacter cloacae with derepressed AmpC beta-lactamsae assessed as susceptible isolate by broth microdilution method in presence of Tazobactam
Pseudomonas aeruginosa [42] = assay: Antimicrobial activity against Pseudomonas aeruginosa isolated from ICU patient assessed as resistant isolate by broth microdilution method
Acinetobacter [43] = assay: Antimicrobial activity against imipenem non-susceptible Acinetobacter by broth microdilution method in presence of Tazobactam
Klebsiella pneumoniae [44] = assay: Antimicrobial activity against Non-ESBL Klebsiella pneumoniae assessed as resistant isolate by broth microdilution method in presence of Tazobactam
Klebsiella pneumoniae [45] = assay: Antimicrobial activity against Non-ESBL Klebsiella pneumoniae assessed as susceptible isolate by broth microdilution method in presence of Tazobactam
Pseudomonas aeruginosa [46] = assay: Antimicrobial activity against ceftazidime non-susceptible Pseudomonas aeruginosa by broth microdilution method in presence of Tazobactam
Klebsiella pneumoniae [47] = assay: Antimicrobial activity against ESBL producing Klebsiella pneumoniae by broth microdilution method in presence of Tazobactam
Klebsiella pneumoniae [48] = assay: Antimicrobial activity against Non-ESBL Klebsiella pneumoniae by broth microdilution method in presence of Tazobactam
Enterobacteriaceae [49] = assay: Antimicrobial activity against ceftazidime non-susceptible Enterobacteriaceae by broth microdilution method in presence of Tazobactam

**Q.** How did the Activity (Escherichia coli [1]) turn out when `CC(C)(O/N=C(\C(=O)N[C@@H]1C(=O)N2C(C(=O)[O-])=C(C[n+]3ccccc3)CS[C@H]12)c1csc(N)n1)C(=O)O` [CEFTAZIDIME] was run?
**A.** 56.7%

**Q.** And the Activity (Citrobacter [2])?
**A.** 1.3%

**Q.** What about the Activity (Klebsiella pneumoniae [3]) of the same molecule?
**A.** 95.5%

**Q.** And the Activity (Enterobacter cloacae [4])?
**A.** 97.1%

**Q.** What about the Activity (Pseudomonas aeruginosa [5]) of the same molecule?
**A.** 6.9%

**Q.** And the Activity (Proteus mirabilis [6])?
**A.** 0.3%

**Q.** What about the Activity (Klebsiella pneumoniae [7]) of the same molecule?
**A.** 0.6%

**Q.** Which MIC50 (Streptococcus pneumoniae [8]) does the source give for `C[C@@H](O)[C@H]1C(=O)N2C(C(=O)O)=C(S[C@@H]3CN[C@H](CNS(N)(=O)=O)C3)[C@H](C)[C@H]12` [DORIPENEM] here?
**A.** 0.03 µg/mL (≈ 0.0713 µM)

**Q.** What about the MIC90 (Streptococcus pneumoniae [8]) of the same molecule?
**A.** 0.5 µg/mL (≈ 1.19 µM)

**Q.** What about the MIC50 (Staphylococcus [9]) of the same molecule?
**A.** 1 µg/mL (≈ 2.38 µM)

**Q.** What about the MIC90 (Staphylococcus [9]) of the same molecule?
**A.** 8 µg/mL (≈ 19 µM)

**Q.** For `C[C@@H](O)[C@H]1C(=O)N2C(C(=O)O)=C(SCCNC=N)C[C@H]12` [IMIPENEM ANHYDROUS], which MIC50 (Streptococcus pneumoniae [8]) is on record?
**A.** 0.03 µg/mL (≈ 0.1 µM)

**Q.** And the MIC90 (Streptococcus pneumoniae [8])?
**A.** 0.25 µg/mL (≈ 0.835 µM)

**Q.** What about the Activity (Streptococcus pneumoniae [10]) of the same molecule?
**A.** 99.9%

**Q.** What about the Activity (Citrobacter [2]) of the same molecule?
**A.** 0.2%

**Q.** What about the Activity (Acinetobacter [11]) of the same molecule?
**A.** 0.7%

**Q.** And the Activity (Proteus mirabilis [6])?
**A.** 0.2%

**Q.** And the Activity (Citrobacter [12])?
**A.** 0%

**Q.** And the MIC50 (Staphylococcus [9])?
**A.** 0.25 µg/mL (≈ 0.835 µM)

**Q.** And the MIC90 (Staphylococcus [9])?
**A.** 16 µg/mL (≈ 53.4 µM)

**Q.** And the Activity (Staphylococcus [13])?
**A.** 99.4%

**Q.** What about the Activity (Klebsiella pneumoniae [14]) of the same molecule?
**A.** 0.2%

**Q.** What about the Activity (Acinetobacter [15]) of the same molecule?
**A.** 17%

**Q.** And the Activity (Escherichia coli [16])?
**A.** 0%

**Q.** And the Activity (Streptococcus pneumoniae [17])?
**A.** 84.4%

**Q.** With `C[C@@H](O)[C@H]1C(=O)N2C(C(=O)O)=C(S[C@@H]3CN[C@H](C(=O)N(C)C)C3)[C@H](C)[C@H]12` [MEROPENEM] as the molecule, how does the Activity (Streptococcus pneumoniae [10]) read?
**A.** 100%

**Q.** What about the Activity (Acinetobacter [11]) of the same molecule?
**A.** 1.4%

**Q.** What about the Activity (Klebsiella pneumoniae [3]) of the same molecule?
**A.** 4.5%

**Q.** And the Activity (Citrobacter [12])?
**A.** 0%

**Q.** And the Activity (Staphylococcus [13])?
**A.** 99.4%

**Q.** And the Activity (Klebsiella pneumoniae [14])?
**A.** 0%

**Q.** What about the Activity (Acinetobacter [15]) of the same molecule?
**A.** 18%

**Q.** And the Activity (Escherichia coli [16])?
**A.** 0%

**Q.** What about the Activity (Streptococcus pneumoniae [17]) of the same molecule?
**A.** 83.9%

**Q.** What about the Activity (Klebsiella pneumoniae [7]) of the same molecule?
**A.** 0.2%

**Q.** Which results are given for `CCN1CCN(C(=O)N[C@@H](C(=O)N[C@@H]2C(=O)N3[C@@H]2SC(C)(C)[C@@H]3C(=O)O)c2ccccc2)C(=O)C1=O` [PIPERACILLIN]?
**A.** Activity (Serratia marcescens [18]): 4.4%; Activity (Enterobacteriaceae [19]): 15.6%; Activity (Enterobacter cloacae [20]): 3.2%; MIC (Proteus mirabilis [21]): 0.5 µg/mL; Activity (Enterobacter cloacae [22]): 82.5%; Activity (Pseudomonas aeruginosa [23]): 17.3%; Activity (Acinetobacter [24]): 3.9%; Activity (Citrobacter [25]): 67.3%; MIC50 (Enterobacter cloacae [26]): > 128 µg/mL; MIC90 (Enterobacter cloacae [26]): > 128 µg/mL; MIC50 (Citrobacter [27]): 128 µg/mL; MIC90 (Citrobacter [27]): > 128 µg/mL; MIC50 (Proteus mirabilis [28]): 0.5 µg/mL; MIC90 (Proteus mirabilis [28]): 2 µg/mL; Activity (Pseudomonas aeruginosa [29]): 13%; Activity (Escherichia coli [30]): 53.3%; Activity (Serratia marcescens [31]): 50%; Activity (Enterobacteriaceae [32]): 2.3%; Activity (Acinetobacter [33]): 0%; MIC50 (Enterobacter cloacae [34]): 4 µg/mL; MIC90 (Enterobacter cloacae [34]): 16 µg/mL; Activity (Pseudomonas aeruginosa [35]): 0%; MIC50 (Escherichia coli [36]): 16 µg/mL; MIC90 (Escherichia coli [36]): > 128 µg/mL; Activity (Escherichia coli [37]): 16.7%; Activity (Acinetobacter [38]): 96.1%; MIC50 (Pseudomonas aeruginosa [39]): 16 µg/mL; MIC90 (Pseudomonas aeruginosa [39]): 64 µg/mL; Activity (Proteus mirabilis [40]): 0.3%; Activity (Enterobacter cloacae [41]): 5.8%; MIC50 (Pseudomonas aeruginosa [42]): 16 µg/mL; MIC50 (Acinetobacter [43]): > 128 µg/mL; MIC90 (Acinetobacter [43]): > 128 µg/mL; Activity (Klebsiella pneumoniae [44]): 1.7%; Activity (Klebsiella pneumoniae [45]): 95.9%; MIC50 (Pseudomonas aeruginosa [46]): > 128 µg/mL; MIC90 (Pseudomonas aeruginosa [46]): > 128 µg/mL; MIC50 (Klebsiella pneumoniae [47]): > 128 µg/mL; MIC90 (Klebsiella pneumoniae [47]): > 128 µg/mL; MIC50 (Klebsiella pneumoniae [48]): 4 µg/mL; MIC90 (Klebsiella pneumoniae [48]): 16 µg/mL; MIC50 (Enterobacteriaceae [49]): 128 µg/mL; MIC90 (Enterobacteriaceae [49]): > 128 µg/mL
